Values quoted from earlier work as cited in patent US20200113872A1, “Ifetroban Treatment for Systemic Sclerosis” (Cumberland Pharmaceuticals Inc., priority 2016, published 2020).

System: pulmonary artery banded mice

Compound: CCCCCNC(=O)c1coc([C@H]2[C@@H](Cc3ccccc3CCC(=O)O)[C@@H]3CC[C@H]2O3)n1 [ifetroban, [1S-(1α,2α,3α,4α)]-2-[[3-[4-[(Pentylamino)carbonyl]-2-oxazolyl]-7-oxabicyclo[2.2.1]hept-2-yl]methyl]-benzenepropanoic acid]
- right ventricular expression of anti-fibrotic and muscularization genes: augmented
- ratio of the early (E) to late (A) ventricular filling velocities (E/A ratio) (one indicator of cardiac efficiency): increased
- expression of genes associated with inflammation (right ventricle): decreased
- cardiomyocyte hypertrophy (treatment with ifetroban): reduced
- right ventricular fibrosis (treatment with ifetroban): reduced
